Measured values taken from PMC8012596, “Hypouricemic agents reduce indoxyl sulfate excretion by inhibiting the renal transporters OAT1/3 and ABCG2” (Scientific Reports, 2021).
Counter-ions that a name gives are not always drawn. Like-named read-outs stand apart in the source and are kept apart here.

Experiments:
intact rats [1] = assay: Effect of hypouricemic agents on pharmacokinetics of intravenously administered d4-IS in intact rats; assay type: in vivo, Wistar rats; set-up: concentration or dose not given beside the values
[2] = set-up: method as in Pharmaceuticals and Medical Devices Agency; settings: ref Pharmaceuticals and Medical Devices Agency; cited from earlier work
intact rats [3] = assay: Effect of hypouricemic agents on endogenous IS pharmacokinetics in intact rats; settings: for Kidney IS concentration compared with control: endogenous IS, at 4 h; for Effect on plasma concentration of endogenous IS: in words
Protocol: Thirty minutes after drug administration, 0.3 mg/kg d^4-IS dissolved in saline was intravenously administered via the tail vein to all rats. Blood samples were obtained from the jugular vein at 0.083, 0.25, 0.5, 1, 2, and 4 h after d^4-IS administration using a heparinized needle and kept on ice, and then the kidney was isolated with the rats under isoflurane anesthesia. Plasma was obtained by centrifuging the blood samples at 1000 × g for 10 min at 4 °C. To prepare the kidney sample, 4-times volume of saline was added to the sample and homogenized.
Endogenous IS and d^4-IS were determined in these samples as previously described with slightly modifications[10]. Briefly, the plasma and kidney homogenates were deproteinized using the internal standard containing methanol. These samples were measured using a liquid chromatography-tandem mass spectrometry (LC–MS/MS) systems consisting of a Nexera X2 and a Prominence instrument (Shimadzu Corp., Kyoto, Japan) coupled with QTRAP4500 (AB SCIEX, LLC., Framingham, MA). Pharmacokinetic parameters (AUC0-4 hr, C0, V0, T1/2, and CLtot) were analyzed using the Phoenix WinNonlin 6.4 software (Certara, L.P., Princeton, NJ). Some pharmacokinetic parameters were calculated using the following equations, in which "IS" means endogenous IS or d^4-IS. CLR, plasma = (urine IS concentration × urine volume) / AUC0-4 hr. CLR, kidney = (urine IS concentration × urine volume) / (kidney IS concentration at 4 h × 4). Kp = kidney IS concentration at 4 h / plasma IS concentration at 4 h.

[4] = set-up: method as in Pharmaceuticals and Medical Devices Agency; settings: ref Pharmaceuticals and Medical Devices Agency, read-out: Cmax at clinical dose, cited from earlier work
[5] = system: adenine-induced acute renal failure rats; assay: Effect of hypouricemic agents on pharmacokinetics of d4-IS in adenine-induced acute renal failure rats; assay type: in vivo, Wistar rats; settings: in words
Protocol: Wistar rats were orally administered 600 mg/kg of adenine, once daily for 5 days. One week after the last administration, urine samples were collected for 4 h. Furthermore, blood samples were obtained from the jugular vein under the isoflurane anesthesia. […] Creatinine level in the plasma and urine was measured using the U-3900 spectrophotometer (Hitachi High-Tech Science Corp., Tokyo, Japan) with the L-type Wako Creatinine F kit (Wako Pure Chemical Industries, Ltd., Osaka, Japan). Creatinine clearance (CLCRE) was calculated using the following equation: CLCRE = [urine creatinine level (mg/dl) × urine volume (ml/min)] / plasma creatinine level (mg/dl) / body weight (kg). […] Four days later, the rats were selected based on the weight and serum creatinine level, and used in the study. In the intact group, the rats were used 4 days after the urine and blood sampling.

[6] = Plasma concentration of hypouricemic agents in intact and adenine-induced acute renal failure rats; assay type: in vivo, Wistar rats; settings: Supplemental Fig. 2; in words
Protocol: Supplemental Fig. 1 Full-length blots/gels of renal expression of OAT1 (A/D), OAT3 (B/E), and ABCG2 (C/F) protein in intact and adenine-induced acute renal failure rats The chemiluminescence in blots and the proteins in gels were detected using ChemiDoc XRS Plus (Bio-Rad Laboratories, Inc.).
Supplemental Fig. 2 Plasma concentration of hypouricemic agents in intact rats and adenine-induced acute renal failure rats
Plasma drug concentration was measured using the same samples for measuring endogenous IS and d4-IS. Plasma samples were deproteinated with thrice volume of methanol and centrifuged at 1,000 × g for 10 min at 4°C. Drug concentrations were measured using the Alliance 2695 HPLC system (Waters Corporation. Milford, MA).

[7] = set-up: method as in PMID 29016645; settings: in humans; cited from earlier work

Structure (SMILES)	Decrease of CLR, plasma of d4-IS compared with control (intact rats [1])	Decrease of CLtot of d4-IS compared with control (intact rats [1])	fu (unbound fraction rate) [2]	Decrease of CLR, plasma of endogenous IS compared with control (intact rats [3])	Increase of AUC0-4 hr of endogenous IS compared with control (intact rats [3])	Kidney IS concentration compared with control (intact rats [3])	Effect on plasma concentration of endogenous IS (intact rats [3])	Cmax ([4]; mean concentration of q.i.d. administration, at a dose of 2 g, for 4 weeks)	Effect on plasma concentration of d4-IS [5]	Plasma concentrations of the drugs in adenine-induced acute renal failure rats versus intact rats [6]	Decrease of CLR, kidney of d4-IS compared with control (intact rats [1])	Decrease of CLR, kidney of endogenous IS compared with control (intact rats [3])	plasma protein binding ratio [7]	Cmax ([4]; Cmax of q.d. administration, at a dose of 4 mg, for 1 weeks)
CCCN(CCC)S(=O)(=O)c1ccc(C(=O)O)cc1 [Probenecid]	78%	80%	0.11	73%	244%	1.7 times	significantly increased	79 µM	moderate but significant increase	not lower than those in intact rats				
Cc1nc(-c2ccc(OCC(C)C)c(C#N)c2)sc1C(=O)O [Febuxostat]	35%	44%		39%	85%	15.1 times	significantly increased			not lower than those in intact rats	94%	93%		
O=S(=O)(O)Oc1c[nH]c2ccccc12 [IS, Indoxyl sulfate]													93%	
O=C(c1cc(Cl)c(O)c(Cl)c1)N1CS(=O)(=O)c2ccccc21 [Dotinurad]			0.007				did not have any effects		did not have any effect					1.2 µM
CCc1oc2ccccc2c1C(=O)c1cc(Br)c(O)c(Br)c1 [Benzbromarone]	43%	34%					did not have any effects			not lower than those in intact rats				
